Source: ChEMBL document CHEMBL5291721, “A preclinical secondary pharmacology resource illuminates target-adverse drug reaction associations of marketed drugs” (Nat Commun, 2023)

Key:
[1] = molecular target: Beta-3 adrenergic receptor (Homo sapiens, UniProt P13945)
B1 bradykinin receptor = molecular target: T1, B1 bradykinin receptor (Homo sapiens, UniProt P46663)
T1 sequence (P46663 whole entry): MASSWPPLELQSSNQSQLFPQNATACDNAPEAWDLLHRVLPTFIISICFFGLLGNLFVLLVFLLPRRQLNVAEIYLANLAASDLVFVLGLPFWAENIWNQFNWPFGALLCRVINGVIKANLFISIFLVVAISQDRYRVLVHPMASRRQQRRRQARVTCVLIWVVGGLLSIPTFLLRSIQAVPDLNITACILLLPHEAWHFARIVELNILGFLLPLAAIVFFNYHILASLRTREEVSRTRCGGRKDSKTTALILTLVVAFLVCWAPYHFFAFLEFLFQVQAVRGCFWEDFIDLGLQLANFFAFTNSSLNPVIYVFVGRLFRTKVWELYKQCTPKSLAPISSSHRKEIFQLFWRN

[2] = molecular target: Voltage-dependent N-type calcium channel subunit alpha-1B (Rattus norvegicus, UniProt Q02294); format: functional
Voltage-dependent N-type calcium channel subunit alpha-1B, sequence (Q02294 whole entry): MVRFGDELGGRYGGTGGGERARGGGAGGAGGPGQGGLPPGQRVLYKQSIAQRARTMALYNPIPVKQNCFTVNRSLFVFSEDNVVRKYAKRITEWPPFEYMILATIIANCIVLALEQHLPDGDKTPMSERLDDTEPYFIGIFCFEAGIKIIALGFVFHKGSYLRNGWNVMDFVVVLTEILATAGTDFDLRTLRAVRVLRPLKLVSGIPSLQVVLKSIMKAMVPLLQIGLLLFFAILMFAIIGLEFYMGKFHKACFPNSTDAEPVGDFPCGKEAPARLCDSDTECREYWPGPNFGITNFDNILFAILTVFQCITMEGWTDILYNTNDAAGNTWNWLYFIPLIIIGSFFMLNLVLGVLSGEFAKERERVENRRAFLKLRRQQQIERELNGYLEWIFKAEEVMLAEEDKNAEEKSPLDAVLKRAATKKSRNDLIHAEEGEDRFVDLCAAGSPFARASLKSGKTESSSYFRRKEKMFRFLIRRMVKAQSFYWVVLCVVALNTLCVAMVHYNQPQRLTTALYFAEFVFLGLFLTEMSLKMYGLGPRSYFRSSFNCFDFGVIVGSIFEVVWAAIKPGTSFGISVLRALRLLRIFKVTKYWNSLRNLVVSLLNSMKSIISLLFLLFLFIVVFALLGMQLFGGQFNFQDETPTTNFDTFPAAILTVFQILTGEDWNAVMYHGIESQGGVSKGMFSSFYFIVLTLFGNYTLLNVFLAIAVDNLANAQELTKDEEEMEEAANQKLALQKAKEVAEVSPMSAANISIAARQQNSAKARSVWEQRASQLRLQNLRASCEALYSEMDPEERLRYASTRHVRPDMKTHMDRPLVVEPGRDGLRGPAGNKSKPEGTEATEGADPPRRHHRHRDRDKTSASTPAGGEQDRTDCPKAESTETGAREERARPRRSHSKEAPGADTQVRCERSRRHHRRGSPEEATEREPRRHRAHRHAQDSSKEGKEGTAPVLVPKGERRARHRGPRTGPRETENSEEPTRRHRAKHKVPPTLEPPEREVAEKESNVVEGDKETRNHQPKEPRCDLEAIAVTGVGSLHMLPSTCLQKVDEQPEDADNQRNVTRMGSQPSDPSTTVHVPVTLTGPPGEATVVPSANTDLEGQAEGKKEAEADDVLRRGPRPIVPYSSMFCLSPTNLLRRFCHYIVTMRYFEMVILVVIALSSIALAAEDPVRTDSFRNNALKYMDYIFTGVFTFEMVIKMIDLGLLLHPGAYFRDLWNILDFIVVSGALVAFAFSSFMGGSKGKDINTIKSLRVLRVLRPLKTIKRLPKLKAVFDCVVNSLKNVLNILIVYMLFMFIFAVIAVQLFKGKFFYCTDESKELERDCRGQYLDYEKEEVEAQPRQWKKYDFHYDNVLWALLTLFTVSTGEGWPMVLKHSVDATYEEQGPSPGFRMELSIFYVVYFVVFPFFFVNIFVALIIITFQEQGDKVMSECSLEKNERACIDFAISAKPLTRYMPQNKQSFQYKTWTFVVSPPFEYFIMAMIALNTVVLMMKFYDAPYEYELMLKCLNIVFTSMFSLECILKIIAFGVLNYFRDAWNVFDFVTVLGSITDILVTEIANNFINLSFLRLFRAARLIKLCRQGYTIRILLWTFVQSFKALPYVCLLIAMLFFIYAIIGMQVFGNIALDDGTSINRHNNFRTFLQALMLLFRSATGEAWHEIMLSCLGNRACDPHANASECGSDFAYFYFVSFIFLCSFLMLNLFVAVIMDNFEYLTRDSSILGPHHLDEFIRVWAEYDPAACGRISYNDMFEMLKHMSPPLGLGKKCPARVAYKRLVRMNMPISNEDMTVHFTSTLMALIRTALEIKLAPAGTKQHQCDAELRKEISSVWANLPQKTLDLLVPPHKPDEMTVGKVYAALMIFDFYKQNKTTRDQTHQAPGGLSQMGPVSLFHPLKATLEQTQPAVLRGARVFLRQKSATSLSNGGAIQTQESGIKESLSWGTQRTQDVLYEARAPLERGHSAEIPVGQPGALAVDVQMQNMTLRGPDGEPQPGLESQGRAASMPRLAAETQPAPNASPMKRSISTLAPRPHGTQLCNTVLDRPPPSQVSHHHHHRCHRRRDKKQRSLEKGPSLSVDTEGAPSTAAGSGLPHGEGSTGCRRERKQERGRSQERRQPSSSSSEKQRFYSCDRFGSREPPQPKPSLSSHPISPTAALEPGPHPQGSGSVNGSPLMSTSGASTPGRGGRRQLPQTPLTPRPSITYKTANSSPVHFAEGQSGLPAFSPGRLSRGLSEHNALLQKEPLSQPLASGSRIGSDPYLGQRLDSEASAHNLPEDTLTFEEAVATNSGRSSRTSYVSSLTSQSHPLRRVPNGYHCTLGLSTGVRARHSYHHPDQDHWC

D(4) dopamine receptor = molecular target: T2, D(4) dopamine receptor (Homo sapiens, UniProt P21917)
T2 sequence (P21917 whole entry): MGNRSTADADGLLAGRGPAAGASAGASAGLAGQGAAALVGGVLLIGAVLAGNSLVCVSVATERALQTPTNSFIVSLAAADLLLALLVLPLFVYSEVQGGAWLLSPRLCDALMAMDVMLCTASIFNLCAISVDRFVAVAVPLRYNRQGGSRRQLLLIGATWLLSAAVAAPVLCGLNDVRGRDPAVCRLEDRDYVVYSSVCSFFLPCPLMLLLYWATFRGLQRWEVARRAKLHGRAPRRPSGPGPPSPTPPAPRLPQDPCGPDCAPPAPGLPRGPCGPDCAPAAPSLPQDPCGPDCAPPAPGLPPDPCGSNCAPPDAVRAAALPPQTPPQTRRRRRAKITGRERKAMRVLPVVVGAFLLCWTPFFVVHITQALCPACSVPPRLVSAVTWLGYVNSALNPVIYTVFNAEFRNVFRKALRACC

Glucagon receptor = Glucagon receptor (Homo sapiens, UniProt P47871)
Glucagon receptor, sequence (P47871 whole entry): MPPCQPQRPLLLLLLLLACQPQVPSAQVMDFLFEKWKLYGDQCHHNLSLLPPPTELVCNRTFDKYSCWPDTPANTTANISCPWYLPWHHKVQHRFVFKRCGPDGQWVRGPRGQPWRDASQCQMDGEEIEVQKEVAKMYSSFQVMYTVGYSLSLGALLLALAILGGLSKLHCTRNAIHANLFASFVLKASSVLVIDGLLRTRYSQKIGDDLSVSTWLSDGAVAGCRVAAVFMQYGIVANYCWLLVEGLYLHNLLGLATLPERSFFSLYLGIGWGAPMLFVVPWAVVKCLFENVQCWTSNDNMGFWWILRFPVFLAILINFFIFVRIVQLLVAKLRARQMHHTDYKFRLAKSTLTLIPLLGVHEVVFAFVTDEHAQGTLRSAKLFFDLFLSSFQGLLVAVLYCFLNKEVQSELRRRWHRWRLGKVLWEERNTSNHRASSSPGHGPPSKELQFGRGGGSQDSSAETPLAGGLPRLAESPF

Histamine H1 receptor = Histamine H1 receptor (Homo sapiens, UniProt P35367); format: functional, cell-based
Histamine H2 receptor = Histamine H2 receptor (Homo sapiens, UniProt P25021)
Histamine H2 receptor, sequence (P25021 whole entry): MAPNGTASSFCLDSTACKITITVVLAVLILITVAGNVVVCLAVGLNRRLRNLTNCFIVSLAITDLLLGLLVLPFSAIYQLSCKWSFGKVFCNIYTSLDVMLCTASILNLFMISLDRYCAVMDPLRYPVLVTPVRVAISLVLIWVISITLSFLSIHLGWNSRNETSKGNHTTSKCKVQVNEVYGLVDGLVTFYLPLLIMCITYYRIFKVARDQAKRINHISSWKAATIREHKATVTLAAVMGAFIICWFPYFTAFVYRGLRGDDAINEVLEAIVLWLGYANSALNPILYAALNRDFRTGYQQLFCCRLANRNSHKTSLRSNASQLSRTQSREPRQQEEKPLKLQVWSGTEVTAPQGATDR

[3] = molecular target: 5-hydroxytryptamine receptor 6 (Homo sapiens, UniProt P50406)
5-hydroxytryptamine receptor 6, sequence (P50406 whole entry): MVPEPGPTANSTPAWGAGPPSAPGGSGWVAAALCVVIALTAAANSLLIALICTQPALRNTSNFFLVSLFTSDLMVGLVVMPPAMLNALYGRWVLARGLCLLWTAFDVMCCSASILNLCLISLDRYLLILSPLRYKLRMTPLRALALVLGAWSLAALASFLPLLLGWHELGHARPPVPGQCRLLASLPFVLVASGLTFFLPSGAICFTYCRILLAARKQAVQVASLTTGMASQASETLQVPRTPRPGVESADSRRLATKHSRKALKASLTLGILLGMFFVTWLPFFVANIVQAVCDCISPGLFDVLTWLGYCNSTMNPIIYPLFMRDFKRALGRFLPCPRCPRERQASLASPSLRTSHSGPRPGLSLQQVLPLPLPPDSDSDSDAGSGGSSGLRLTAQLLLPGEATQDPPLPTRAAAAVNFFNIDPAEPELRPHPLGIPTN

[4] = molecular target: 5-hydroxytryptamine receptor 7 (Homo sapiens, UniProt P34969)
5-hydroxytryptamine receptor 7, sequence (P34969 whole entry): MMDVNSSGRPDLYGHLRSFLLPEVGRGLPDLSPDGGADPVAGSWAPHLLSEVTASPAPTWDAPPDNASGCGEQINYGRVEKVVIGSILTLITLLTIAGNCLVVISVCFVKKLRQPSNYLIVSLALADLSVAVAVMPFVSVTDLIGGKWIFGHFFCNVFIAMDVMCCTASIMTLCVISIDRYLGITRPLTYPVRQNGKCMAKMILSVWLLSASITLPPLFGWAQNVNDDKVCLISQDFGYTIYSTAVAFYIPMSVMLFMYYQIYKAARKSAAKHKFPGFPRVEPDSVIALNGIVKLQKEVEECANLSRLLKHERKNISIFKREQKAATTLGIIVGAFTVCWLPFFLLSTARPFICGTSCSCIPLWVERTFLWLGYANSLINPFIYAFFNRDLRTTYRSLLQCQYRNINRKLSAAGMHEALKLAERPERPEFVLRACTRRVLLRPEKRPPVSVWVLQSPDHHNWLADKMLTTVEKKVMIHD

[5] = molecular target: T3, Neuropeptide Y receptor type 2 (Homo sapiens, UniProt P49146)
T3 sequence (P49146 whole entry): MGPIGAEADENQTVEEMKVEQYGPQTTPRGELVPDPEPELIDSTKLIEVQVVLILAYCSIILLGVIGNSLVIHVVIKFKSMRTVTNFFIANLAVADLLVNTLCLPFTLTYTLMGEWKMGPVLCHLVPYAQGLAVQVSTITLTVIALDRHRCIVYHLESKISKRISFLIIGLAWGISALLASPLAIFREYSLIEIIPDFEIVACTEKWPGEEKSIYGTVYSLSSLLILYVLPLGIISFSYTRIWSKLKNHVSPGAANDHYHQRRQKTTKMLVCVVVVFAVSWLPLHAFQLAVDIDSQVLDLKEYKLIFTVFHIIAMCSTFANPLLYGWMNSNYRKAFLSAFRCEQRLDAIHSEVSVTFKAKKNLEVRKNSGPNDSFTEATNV

[6] = molecular target: Neurotensin receptor type 1 (Homo sapiens, UniProt P30989)
Neurotensin receptor type 1, sequence (P30989 whole entry): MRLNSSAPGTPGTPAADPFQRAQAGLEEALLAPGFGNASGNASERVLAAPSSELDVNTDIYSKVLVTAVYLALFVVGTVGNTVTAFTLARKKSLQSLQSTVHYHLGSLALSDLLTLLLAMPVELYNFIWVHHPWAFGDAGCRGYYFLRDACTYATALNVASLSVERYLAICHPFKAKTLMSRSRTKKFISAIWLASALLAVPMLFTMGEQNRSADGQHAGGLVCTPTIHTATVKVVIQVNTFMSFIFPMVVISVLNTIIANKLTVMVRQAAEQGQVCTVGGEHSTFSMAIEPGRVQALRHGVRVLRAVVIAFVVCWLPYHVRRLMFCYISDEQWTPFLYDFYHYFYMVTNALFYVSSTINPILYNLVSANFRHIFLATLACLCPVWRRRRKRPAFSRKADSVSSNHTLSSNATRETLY

[7] = molecular target: T4, Alpha-1A adrenergic receptor (Homo sapiens, UniProt P35348)
T4 sequence (P35348 whole entry): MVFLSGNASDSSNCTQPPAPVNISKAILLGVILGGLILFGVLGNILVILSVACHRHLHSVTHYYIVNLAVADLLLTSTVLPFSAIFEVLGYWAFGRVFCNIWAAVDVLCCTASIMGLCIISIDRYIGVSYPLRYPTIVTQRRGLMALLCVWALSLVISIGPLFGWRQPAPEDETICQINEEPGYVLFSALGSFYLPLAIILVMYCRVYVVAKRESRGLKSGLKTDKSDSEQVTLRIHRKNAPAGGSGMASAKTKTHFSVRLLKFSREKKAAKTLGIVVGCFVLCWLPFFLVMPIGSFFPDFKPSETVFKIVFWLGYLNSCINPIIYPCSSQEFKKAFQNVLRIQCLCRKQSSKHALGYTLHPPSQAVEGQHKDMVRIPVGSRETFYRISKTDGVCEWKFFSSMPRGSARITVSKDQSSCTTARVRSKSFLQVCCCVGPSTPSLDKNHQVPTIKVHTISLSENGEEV
Further: assay procedure not described here.

Beta-3 adrenergic receptor, sequence (P13945 whole entry): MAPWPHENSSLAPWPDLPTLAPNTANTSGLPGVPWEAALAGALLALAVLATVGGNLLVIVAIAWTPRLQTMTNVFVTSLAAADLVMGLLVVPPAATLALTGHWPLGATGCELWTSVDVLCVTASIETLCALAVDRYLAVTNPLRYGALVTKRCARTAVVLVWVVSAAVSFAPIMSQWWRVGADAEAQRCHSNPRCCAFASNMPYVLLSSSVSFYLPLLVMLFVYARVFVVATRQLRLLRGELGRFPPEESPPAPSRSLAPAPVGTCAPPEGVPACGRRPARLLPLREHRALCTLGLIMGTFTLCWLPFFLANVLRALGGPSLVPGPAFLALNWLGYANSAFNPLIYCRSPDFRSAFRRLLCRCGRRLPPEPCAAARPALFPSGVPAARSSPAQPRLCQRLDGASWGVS

With `CCCCc1ncc(/C=C(\Cc2cccs2)C(=O)O)n1Cc1ccc(C(=O)O)cc1` [EPROSARTAN] the AC50 [1] was over 30 µM, the AC50 (B1 bradykinin receptor) was over 30 µM and the AC50 [2] was over 10 µM. It also gave an AC50 (D(4) dopamine receptor) of over 10 µM, an AC50 (Glucagon receptor) of over 30 µM and an AC50 (Histamine H1 receptor) of over 30 µM. It also gave an AC50 (Histamine H2 receptor) of over 10 µM, an AC50 [3] of over 10 µM and an AC50 [4] of over 10 µM. For the same compound, the AC50 [5] was over 30 µM, the AC50 [6] was over 30 µM and the AC50 [7] was over 10 µM.
